Tests used:
[1] = target: Serine/threonine-protein kinase MARK1 (Homo sapiens) (UniProt Q9P0L2); conditions: Compound concentration 1000.0 nM
[2] = target: 5-hydroxytryptamine receptor 2A (Homo sapiens) (UniProt P28223); assay: 5HT2AH_AGON Cerep selectivity data (BI); conditions: filed as agonist, Compound concentration 20.0 uM
[3] = target: Acetylcholinesterase (Homo sapiens) (UniProt P22303); assay: ACHE/H Cerep selectivity data (BI); conditions: Compound concentration 20.0 uM
[4] = target: Chloride channel protein 1 (Rattus norvegicus) (UniProt P35524); assay: CL-CHANNEL/R Cerep selectivity data (BI); conditions: Compound concentration 20.0 uM
[5] = target: Sodium-dependent dopamine transporter (Homo sapiens, UniProt Q01959); assay: DATRANS/HUM Cerep selectivity data (BI); conditions: Compound concentration 20.0 uM
[6] = target: Glucocorticoid receptor (Homo sapiens) (UniProt P04150); assay: GCORTICOID/H Cerep selectivity data (BI); conditions: Compound concentration 20.0 uM
[7] = target: Glutamate receptor ionotropic, kainate 1 (Rattus norvegicus) (UniProt P22756); assay: KAINATE/RA Cerep selectivity data (BI); conditions: Compound concentration 20.0 uM
[8] = target: Substance-P receptor (Homo sapiens) (UniProt P25103); assay: NK1/HUM Cerep selectivity data (BI); conditions: Compound concentration 20.0 uM
[9] = target: cGMP-dependent 3',5'-cyclic phosphodiesterase (Homo sapiens) (UniProt O00408); assay: PDE2A1 Cerep selectivity data (BI); conditions: Compound concentration 20.0 uM
[10] = target: B1 bradykinin receptor (Homo sapiens) (UniProt P46663); assay: B1/H Eurofins-Panlabs selectivity data (BI); conditions: Compound concentration 10.0 uM
[11] = target: L-type Ca2+ channel (DHP site), Cav1.2 alpha-1C (Rattus norvegicus, UniProt P22002); assay: CA+/DHPSI/RA Eurofins-Panlabs selectivity data (BI); conditions: compound concentration 10 uM, read-out: % Ctrl
[12] = target: L-type Ca2+ channel (diltiazem site), Cav1.2 alpha-1C (Rattus norvegicus, UniProt P22002); assay: CA+/DILSI/RA Eurofins-Panlabs selectivity data (BI); conditions: compound concentration 10 uM, read-out: % Ctrl
[13] = target: Sodium- and chloride-dependent GABA transporter 1 (Rattus norvegicus) (UniProt P23978); assay: GABATRANS/RA Eurofins-Panlabs selectivity data (BI); conditions: Compound concentration 10.0 uM
[14] = target: T1, Aurora kinase C (Homo sapiens) (UniProt Q9UQB9); assay: AURKC Invitrogen selectivity data (BI); conditions: Compound concentration 3.0 uM
T1 sequence (whole entry): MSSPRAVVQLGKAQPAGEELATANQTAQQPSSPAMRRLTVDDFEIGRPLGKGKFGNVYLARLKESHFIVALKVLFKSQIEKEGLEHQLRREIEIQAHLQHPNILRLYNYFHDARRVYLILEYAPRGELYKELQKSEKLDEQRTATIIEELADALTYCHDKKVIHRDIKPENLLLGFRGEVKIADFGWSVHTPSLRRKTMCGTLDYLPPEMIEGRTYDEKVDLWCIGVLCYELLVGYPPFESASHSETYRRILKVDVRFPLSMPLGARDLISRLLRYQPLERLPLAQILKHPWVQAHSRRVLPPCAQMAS

[15] = target: Casein kinase I isoform gamma-3 (Homo sapiens) (UniProt Q9Y6M4); assay: CSNK1G3 Invitrogen selectivity data (BI); conditions: Compound concentration 3.0 uM
[16] = target: T2, Myotonin-protein kinase (Homo sapiens) (UniProt Q09013); assay: DMPK Invitrogen selectivity data (BI); conditions: Compound concentration 3.0 uM
T2 sequence (whole entry): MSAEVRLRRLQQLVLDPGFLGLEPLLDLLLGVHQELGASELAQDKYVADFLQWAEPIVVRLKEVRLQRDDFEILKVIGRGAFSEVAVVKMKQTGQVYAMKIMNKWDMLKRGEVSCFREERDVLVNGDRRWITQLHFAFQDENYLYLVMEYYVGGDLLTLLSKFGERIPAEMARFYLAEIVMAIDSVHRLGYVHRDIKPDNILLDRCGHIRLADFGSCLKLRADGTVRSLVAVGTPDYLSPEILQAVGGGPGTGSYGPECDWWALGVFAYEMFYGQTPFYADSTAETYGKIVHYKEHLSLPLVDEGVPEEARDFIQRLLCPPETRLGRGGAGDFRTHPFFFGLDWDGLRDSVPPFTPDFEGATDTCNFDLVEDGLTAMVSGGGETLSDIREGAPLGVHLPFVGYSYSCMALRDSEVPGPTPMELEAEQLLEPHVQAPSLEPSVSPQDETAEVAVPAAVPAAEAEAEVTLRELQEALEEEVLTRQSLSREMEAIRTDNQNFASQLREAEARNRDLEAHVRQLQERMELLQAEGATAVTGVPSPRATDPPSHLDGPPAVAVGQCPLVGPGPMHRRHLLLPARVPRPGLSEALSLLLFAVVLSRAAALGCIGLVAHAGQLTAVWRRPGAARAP

[17] = target: DNA-dependent protein kinase catalytic subunit (Homo sapiens) (UniProt P78527); assay: DNA-PK Invitrogen selectivity data (BI); conditions: Compound concentration 3.0 uM
[18] = target: Vascular endothelial growth factor receptor 2 (Homo sapiens) (UniProt P35968); assay: KDR Invitrogen selectivity data (BI); conditions: Compound concentration 3.0 uM
[19] = tested on: Mast/stem cell growth factor receptor Kit (Homo sapiens), P10721 [T670I]; assay: KIT T670I Invitrogen selectivity data (BI); conditions: Compound concentration 3.0 uM
[20] = target: Mitogen-activated protein kinase 10 (Homo sapiens) (UniProt P53779); assay: MAPK10 Invitrogen selectivity data (BI); conditions: Compound concentration 3.0 uM
[21] = target: Serine/threonine-protein kinase PAK 6 (Homo sapiens) (UniProt Q9NQU5); assay: PAK6 Invitrogen selectivity data (BI); conditions: Compound concentration 3.0 uM
[22] = target: Ribosomal protein S6 kinase alpha-6 (Homo sapiens) (UniProt Q9UK32); assay: RPS6KA6 Invitrogen selectivity data (BI); conditions: Compound concentration 3.0 uM
[23] = target: T3, Testis-specific serine/threonine-protein kinase 3 (Homo sapiens) (UniProt Q96PN8); assay: STK22D Invitrogen selectivity data (BI); conditions: Compound concentration 3.0 uM
T3 sequence (whole entry): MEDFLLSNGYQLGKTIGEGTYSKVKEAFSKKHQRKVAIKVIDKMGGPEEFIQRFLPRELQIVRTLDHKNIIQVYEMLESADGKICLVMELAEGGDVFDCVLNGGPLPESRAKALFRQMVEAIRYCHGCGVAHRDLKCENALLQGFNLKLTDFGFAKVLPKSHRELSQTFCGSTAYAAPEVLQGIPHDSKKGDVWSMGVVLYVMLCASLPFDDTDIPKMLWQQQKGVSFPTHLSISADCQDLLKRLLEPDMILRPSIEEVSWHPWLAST

Chain of Sodium-dependent dopamine transporter (Q01959 whole entry): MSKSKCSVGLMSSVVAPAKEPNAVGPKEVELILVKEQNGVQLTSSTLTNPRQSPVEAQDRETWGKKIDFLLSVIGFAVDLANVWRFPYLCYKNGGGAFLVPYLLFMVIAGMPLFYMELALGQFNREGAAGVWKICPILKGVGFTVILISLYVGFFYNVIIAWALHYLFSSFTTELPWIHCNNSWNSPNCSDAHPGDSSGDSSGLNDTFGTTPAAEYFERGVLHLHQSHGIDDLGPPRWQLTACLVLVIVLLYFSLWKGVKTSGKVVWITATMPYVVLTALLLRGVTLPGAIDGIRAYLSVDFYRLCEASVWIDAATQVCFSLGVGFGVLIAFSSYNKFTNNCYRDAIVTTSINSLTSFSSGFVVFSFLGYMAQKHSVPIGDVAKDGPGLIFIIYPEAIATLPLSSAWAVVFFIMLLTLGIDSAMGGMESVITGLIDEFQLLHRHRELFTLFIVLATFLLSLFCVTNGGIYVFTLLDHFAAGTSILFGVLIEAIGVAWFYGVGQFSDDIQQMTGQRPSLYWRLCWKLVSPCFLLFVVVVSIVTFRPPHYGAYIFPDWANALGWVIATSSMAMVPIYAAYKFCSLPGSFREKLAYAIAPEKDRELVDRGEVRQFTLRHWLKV
Chain of Serine/threonine-protein kinase PAK 6 (Homo sapiens) (Q9NQU5 whole entry, looked up): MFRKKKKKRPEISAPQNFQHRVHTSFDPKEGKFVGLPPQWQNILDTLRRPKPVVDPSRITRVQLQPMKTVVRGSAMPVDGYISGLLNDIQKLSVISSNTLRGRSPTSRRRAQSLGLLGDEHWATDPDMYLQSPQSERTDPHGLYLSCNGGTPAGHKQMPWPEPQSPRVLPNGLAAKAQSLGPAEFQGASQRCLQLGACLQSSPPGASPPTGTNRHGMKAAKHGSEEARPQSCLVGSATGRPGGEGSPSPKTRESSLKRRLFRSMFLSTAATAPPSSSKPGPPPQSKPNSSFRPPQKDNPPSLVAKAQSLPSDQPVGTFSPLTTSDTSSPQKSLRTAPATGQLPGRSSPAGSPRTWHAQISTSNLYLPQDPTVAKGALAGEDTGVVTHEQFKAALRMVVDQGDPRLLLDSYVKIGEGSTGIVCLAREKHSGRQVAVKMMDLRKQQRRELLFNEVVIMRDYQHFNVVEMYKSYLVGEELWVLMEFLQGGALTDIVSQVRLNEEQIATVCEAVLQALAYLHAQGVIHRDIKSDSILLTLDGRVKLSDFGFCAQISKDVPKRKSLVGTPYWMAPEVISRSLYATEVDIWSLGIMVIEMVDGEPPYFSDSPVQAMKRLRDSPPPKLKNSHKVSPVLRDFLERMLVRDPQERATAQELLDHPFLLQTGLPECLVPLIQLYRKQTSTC
Chain of Glucocorticoid receptor (Homo sapiens) (P04150 whole entry): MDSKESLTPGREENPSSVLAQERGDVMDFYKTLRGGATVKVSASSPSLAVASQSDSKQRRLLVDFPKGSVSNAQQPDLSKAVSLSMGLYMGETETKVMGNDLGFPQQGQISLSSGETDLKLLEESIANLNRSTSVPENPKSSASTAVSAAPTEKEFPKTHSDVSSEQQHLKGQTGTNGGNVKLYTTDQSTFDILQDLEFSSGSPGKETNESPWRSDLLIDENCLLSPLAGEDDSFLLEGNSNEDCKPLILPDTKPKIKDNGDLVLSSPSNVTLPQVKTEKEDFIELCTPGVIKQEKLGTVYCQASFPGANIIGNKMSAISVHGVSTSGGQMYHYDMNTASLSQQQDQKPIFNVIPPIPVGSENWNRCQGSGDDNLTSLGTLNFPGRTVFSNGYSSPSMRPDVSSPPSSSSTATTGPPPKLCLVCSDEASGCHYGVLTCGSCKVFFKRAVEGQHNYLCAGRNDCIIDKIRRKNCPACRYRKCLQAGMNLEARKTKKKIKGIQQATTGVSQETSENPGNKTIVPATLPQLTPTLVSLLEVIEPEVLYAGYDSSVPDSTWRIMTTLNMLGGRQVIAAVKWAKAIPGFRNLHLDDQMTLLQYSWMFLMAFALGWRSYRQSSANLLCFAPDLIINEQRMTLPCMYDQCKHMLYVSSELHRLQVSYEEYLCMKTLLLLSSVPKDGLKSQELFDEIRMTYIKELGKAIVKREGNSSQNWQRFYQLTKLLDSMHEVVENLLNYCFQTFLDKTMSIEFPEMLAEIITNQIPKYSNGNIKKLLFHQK
Chain of Acetylcholinesterase (Homo sapiens) (P22303 whole entry): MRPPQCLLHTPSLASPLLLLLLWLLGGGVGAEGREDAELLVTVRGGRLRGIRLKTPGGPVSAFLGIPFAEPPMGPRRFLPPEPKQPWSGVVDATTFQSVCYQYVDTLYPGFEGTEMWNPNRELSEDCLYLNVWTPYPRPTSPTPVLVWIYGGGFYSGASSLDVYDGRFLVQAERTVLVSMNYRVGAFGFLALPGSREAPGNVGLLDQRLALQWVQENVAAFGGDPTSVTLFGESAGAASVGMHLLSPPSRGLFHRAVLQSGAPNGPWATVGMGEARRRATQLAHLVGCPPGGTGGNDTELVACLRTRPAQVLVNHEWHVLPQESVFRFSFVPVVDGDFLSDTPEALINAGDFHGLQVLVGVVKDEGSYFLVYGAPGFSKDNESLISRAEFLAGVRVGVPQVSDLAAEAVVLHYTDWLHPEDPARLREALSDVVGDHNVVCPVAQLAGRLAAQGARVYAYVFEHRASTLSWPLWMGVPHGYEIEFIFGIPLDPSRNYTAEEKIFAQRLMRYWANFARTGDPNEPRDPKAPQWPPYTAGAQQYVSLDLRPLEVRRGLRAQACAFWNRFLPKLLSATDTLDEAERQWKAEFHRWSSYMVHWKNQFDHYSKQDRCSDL
Chain of Ribosomal protein S6 kinase alpha-6 (Homo sapiens) (Q9UK32 whole entry): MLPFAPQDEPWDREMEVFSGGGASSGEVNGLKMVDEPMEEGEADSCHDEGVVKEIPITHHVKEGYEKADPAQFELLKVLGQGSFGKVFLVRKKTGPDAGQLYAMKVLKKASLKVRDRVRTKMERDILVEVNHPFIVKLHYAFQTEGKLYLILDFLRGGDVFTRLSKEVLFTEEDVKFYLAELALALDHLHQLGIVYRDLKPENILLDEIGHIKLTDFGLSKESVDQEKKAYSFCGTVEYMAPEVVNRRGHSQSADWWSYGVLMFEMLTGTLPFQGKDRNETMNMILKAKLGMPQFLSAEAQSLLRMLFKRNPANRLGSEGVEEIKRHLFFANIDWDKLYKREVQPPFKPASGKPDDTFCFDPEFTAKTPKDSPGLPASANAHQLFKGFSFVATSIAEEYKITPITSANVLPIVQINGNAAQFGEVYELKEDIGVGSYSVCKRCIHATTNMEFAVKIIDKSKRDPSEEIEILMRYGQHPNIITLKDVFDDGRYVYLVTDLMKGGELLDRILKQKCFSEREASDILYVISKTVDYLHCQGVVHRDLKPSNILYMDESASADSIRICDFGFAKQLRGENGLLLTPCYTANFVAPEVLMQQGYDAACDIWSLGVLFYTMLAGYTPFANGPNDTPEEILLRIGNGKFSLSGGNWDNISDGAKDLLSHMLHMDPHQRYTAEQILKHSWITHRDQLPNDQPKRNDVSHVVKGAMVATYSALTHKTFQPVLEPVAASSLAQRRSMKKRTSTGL
Chain of Mast/stem cell growth factor receptor Kit (Homo sapiens), P10721 [T670I] (P10721 whole entry T670I): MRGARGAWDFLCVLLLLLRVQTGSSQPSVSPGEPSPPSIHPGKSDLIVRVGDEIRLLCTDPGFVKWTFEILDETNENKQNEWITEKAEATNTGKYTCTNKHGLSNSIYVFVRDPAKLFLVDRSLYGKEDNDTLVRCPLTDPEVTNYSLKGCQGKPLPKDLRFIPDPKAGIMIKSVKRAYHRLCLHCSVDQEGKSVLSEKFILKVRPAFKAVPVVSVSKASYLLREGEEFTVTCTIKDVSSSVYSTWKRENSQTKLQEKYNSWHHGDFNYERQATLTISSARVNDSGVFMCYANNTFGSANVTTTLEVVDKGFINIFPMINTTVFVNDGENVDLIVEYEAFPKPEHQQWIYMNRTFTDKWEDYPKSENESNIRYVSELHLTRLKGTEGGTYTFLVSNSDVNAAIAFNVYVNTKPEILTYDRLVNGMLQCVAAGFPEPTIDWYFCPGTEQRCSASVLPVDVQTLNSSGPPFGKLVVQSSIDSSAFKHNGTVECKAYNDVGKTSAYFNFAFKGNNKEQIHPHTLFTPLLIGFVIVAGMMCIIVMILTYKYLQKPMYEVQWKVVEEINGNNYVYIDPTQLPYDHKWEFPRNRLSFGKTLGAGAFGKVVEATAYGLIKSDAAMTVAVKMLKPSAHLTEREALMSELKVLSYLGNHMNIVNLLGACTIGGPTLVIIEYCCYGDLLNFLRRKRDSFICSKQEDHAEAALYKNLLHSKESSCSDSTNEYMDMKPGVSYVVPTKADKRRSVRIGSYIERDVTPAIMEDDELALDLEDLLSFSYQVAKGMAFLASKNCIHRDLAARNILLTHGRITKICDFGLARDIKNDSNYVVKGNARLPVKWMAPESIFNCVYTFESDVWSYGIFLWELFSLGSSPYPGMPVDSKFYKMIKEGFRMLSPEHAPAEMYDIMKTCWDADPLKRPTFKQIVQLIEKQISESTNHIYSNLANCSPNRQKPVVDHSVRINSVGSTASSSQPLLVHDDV

CN(C)C(=O)Cn1cc(-c2nc(C3(c4ccc(-c5cnc(N)nc5)cc4)CC3)no2)cn1 [BI 0153]
inactive: residual activity [1] 100%

CN(C)C(=O)Cn1cc(-c2nc([C@@](C)(c3ccc(-c4cnc(N)nc4)cc3)C3CC3)no2)cn1 [BI 665915]
98% (not active): activity at 10 µM [11]
inactive: residual activity [2] 102% | residual activity [3] 98% | residual activity [4] 88% | residual activity [5] 87% | residual activity [6] 96% | residual activity [7] 82% | residual activity [8] 95% | residual activity [9] 97% | residual activity [10] 112% | residual activity [13] 82% | residual activity [14] 93% | residual activity [15] 99% | residual activity [16] 100% | residual activity [17] 91% | residual activity [18] 90.5% | residual activity [19] 93% | residual activity [20] 96% | residual activity [21] 93.5% | residual activity [22] 105% | residual activity [23] 96.5%
73% (not active): activity at 10 µM [12]
